In patent US20240381871A1, “5-HALOALKOXY-PYRIMIDINE COMPOUNDS AS HERBICIDES” (SYNGENTA CROP PROTECTION AG, priority 2020, published 2024):

Legend:
Format in all cases: in vivo
[1] = test system: Abutilon theophrasti (ABUTH); assay: Post-emergence herbicidal glasshouse test; settings: rate 250, evaluated after 13 days, the values are:
Method: (§1) Seeds of a variety of test species are sown in standard soil in pots, Amaranthus retoflexus (AMARE), Abutilon theophrasti (ABUTH), Setaria faberi (SETFA), Echinochloa crus-galli (ECHCG) and Ipomoea hederacea (IPOHE). After cultivation for one day (pre-emergence) or after 8 days cultivation (post-emergence) under controlled conditions in a glasshouse (at 24/16° C., day/night; 14 hours light; 65% humidity), the plants are sprayed with an aqueous spray solution derived from the formulation of the technical active ingredient in acetone/water (50:50) solution containing 0.5% Tween 20 (polyoxyethelyene sorbitan monolaurate, CAS RN 9005-64-5). Compounds are applied at 1000 g/ha unless otherwise stated. The test plants are then grown in a glasshouse under controlled conditions in a glasshouse (at 24/16° C., day/night; 14 hours light; 65% humidity) and watered twice daily. After 13 days for pre and post-emergence, the test is evaluated for the percentage damage caused to the plant.

[2] = test system: Amaranthus retoflexus (AMARE); assay: Post-emergence herbicidal glasshouse test; settings: rate 250, evaluated after 13 days, the values are: phytotoxicity score (1-5 scale)
Method: as §1

[3] = test system: Echinochloa crus-galli (ECHCG); assay: Post-emergence herbicidal glasshouse test; settings: rate 250, evaluated after 13 days, the values are: phytotoxicity score (1-5 scale)
Method: as §1

[4] = test system: Ipomoea hederacea (IPOHE); assay: Post-emergence herbicidal glasshouse test; settings: rate 250, evaluated after 13 days, the values are: phytotoxicity score (1-5 scale)
Method: as §1

Setaria faberi (SETFA) [5] = assay: Post-emergence herbicidal glasshouse test; settings: rate 250, evaluated after 13 days, the values are:
Method: as §1

[6] = test system: Abutilon theophrasti (ABUTH); assay: Pre-emergence herbicidal glasshouse test; settings: rate 250, evaluated after 13 days, the values are:
Method: as §1

[7] = test system: Amaranthus retoflexus (AMARE); assay: Pre-emergence herbicidal glasshouse test; settings: rate 250, evaluated after 13 days, the values are:
Method: as §1

[8] = test system: Echinochloa crus-galli (ECHCG); assay: Pre-emergence herbicidal glasshouse test; settings: rate 250, evaluated after 13 days, the values are: phytotoxicity score (1-5)
Method: as §1

[9] = test system: Ipomoea hederacea (IPOHE); assay: Pre-emergence herbicidal glasshouse test; settings: rate 250, evaluated after 13 days, the values are:
Method: as §1

Setaria faberi (SETFA) [10] = assay: Pre-emergence herbicidal glasshouse test; settings: rate 250, evaluated after 13 days, the values are: phytotoxicity score (1-5)
Method: as §1

Zea mays (ZEAMX) = assay: Comparative post-emergence test, crop damage; settings: 336 h, after 14 days, read-out: ZEAMX damage (100=total damage to plant; 0=no damage)
Method: (§2) Seeds of test species were sown in standard soil in pots. After cultivation for 10 days (post-emergence) under controlled conditions in a glasshouse (at 24/16° C., day/night; 14 hours light; 65% humidity), the plants were sprayed with an aqueous spray solution derived from the formulation of the technical active ingredient in 0.6 ml acetone and 45 ml formulation solution containing 10.6% Emulsogen EL (Registry number 61791-12-6), 42.2% N-methyl pyrrolidone, 42.2% dipropylene glycol monomethyl ether (CAS RN 34590-94-8) and 0.2% X-77 (CAS RN 11097-66-8). The test plants were then grown in a glasshouse under controlled conditions in a glasshouse (at 24/16° C., day/night; 14 hours light; 65% humidity) and watered twice daily. After 14 days, the test was evaluated (100=total damage to plant; 0=no damage to plant). • Weeds: Ipomea hederacea (IPOHE) • Crops: Zea mays (ZEAMX)

Ipomea hederacea (IPOHE) = assay: Comparative post-emergence test, weed control; settings: Ipomoea hederacea, 336 h, after 14 days, read-out: IPOHE damage (100=total damage to plant; 0=no damage)
Method: as §2

For `FC(F)Oc1cnc(Oc2cccc(Br)c2-c2cc(C(F)F)no2)nc1` [Compound 1.005], the Post-emergence activity ABUTH (% phytotoxicity) [1] was 4, the Post-emergence activity AMARE (% phytotoxicity) [2] was 4 and the Post-emergence activity ECHCG (% phytotoxicity) [3] was 3. It also gave a Post-emergence activity IPOHE (% phytotoxicity) [4] of 5, a Post-emergence activity SETFA (% phytotoxicity) (Setaria faberi (SETFA) [5]) of 4 and a Pre-emergence activity ABUTH (% phytotoxicity) [6] of 3. It also gave a Pre-emergence activity AMARE (% phytotoxicity) [7] of 5, a Pre-emergence activity ECHCG (% phytotoxicity) [8] of 3 and a Pre-emergence activity IPOHE (% phytotoxicity) [9] of 4. It also gave a Pre-emergence activity SETFA (% phytotoxicity) (Setaria faberi (SETFA) [10]) of 5, a plant injury at 60 g/ha (Zea mays (ZEAMX)) of 10% and a plant injury at 125 g/ha (Zea mays (ZEAMX)) of 20%. The plant injury at 250 g/ha (Zea mays (ZEAMX)) was 30%, the plant injury at 500 g/ha (Zea mays (ZEAMX)) was 30% and the pest or weed control at 2 g/ha (Ipomea hederacea (IPOHE)) was 30%. It also gave a pest or weed control at 8 g/ha (Ipomea hederacea (IPOHE)) of 20%, a pest or weed control at 60 g/ha (Ipomea hederacea (IPOHE)) of 40% and a pest or weed control at 125 g/ha (Ipomea hederacea (IPOHE)) of 70%. For the same molecule, the pest or weed control at 250 g/ha (Ipomea hederacea (IPOHE)) was 90% and the pest or weed control at 500 g/ha (Ipomea hederacea (IPOHE)) was 80%.

`FC(F)Oc1cnc(Oc2cccc(Cl)c2-c2cc(C(F)F)no2)nc1` [Compound 1.004] was tested, and the Post-emergence activity ABUTH (% phytotoxicity) [1] was 4, the Post-emergence activity AMARE (% phytotoxicity) [2] was 4 and the Post-emergence activity ECHCG (% phytotoxicity) [3] was 4. It also gave a Post-emergence activity IPOHE (% phytotoxicity) [4] of 4, a Post-emergence activity SETFA (% phytotoxicity) (Setaria faberi (SETFA) [5]) of 4 and a Pre-emergence activity ABUTH (% phytotoxicity) [6] of 4. The Pre-emergence activity AMARE (% phytotoxicity) [7] was 5, the Pre-emergence activity ECHCG (% phytotoxicity) [8] was 4 and the Pre-emergence activity IPOHE (% phytotoxicity) [9] was 5. For the same molecule, the Pre-emergence activity SETFA (% phytotoxicity) (Setaria faberi (SETFA) [10]) was 5, the plant injury at 2 g/ha (Zea mays (ZEAMX)) was 0% and the plant injury at 8 g/ha (Zea mays (ZEAMX)) was 0%. The plant injury at 60 g/ha (Zea mays (ZEAMX)) was 0%, the plant injury at 125 g/ha (Zea mays (ZEAMX)) was 10% and the plant injury at 250 g/ha (Zea mays (ZEAMX)) was 20%. For the same molecule, the plant injury at 500 g/ha (Zea mays (ZEAMX)) was 40%, the pest or weed control at 2 g/ha (Ipomea hederacea (IPOHE)) was 20% and the pest or weed control at 8 g/ha (Ipomea hederacea (IPOHE)) was 50%. It also gave a pest or weed control at 60 g/ha (Ipomea hederacea (IPOHE)) of 70%, a pest or weed control at 125 g/ha (Ipomea hederacea (IPOHE)) of 70% and a pest or weed control at 250 g/ha (Ipomea hederacea (IPOHE)) of 90%. The pest or weed control at 500 g/ha (Ipomea hederacea (IPOHE)) was 90%.

Work on `FC(F)Oc1cnc(Oc2ccccc2-c2cc(C(F)F)no2)nc1` [Compound 1.003] yielded a Post-emergence activity ABUTH (% phytotoxicity) [1] of 4, a Post-emergence activity AMARE (% phytotoxicity) [2] of 4 and a Post-emergence activity ECHCG (% phytotoxicity) [3] of 3. The Post-emergence activity IPOHE (% phytotoxicity) [4] was 4, the Post-emergence activity SETFA (% phytotoxicity) (Setaria faberi (SETFA) [5]) was 3 and the Pre-emergence activity ABUTH (% phytotoxicity) [6] was 4. It also gave a Pre-emergence activity AMARE (% phytotoxicity) [7] of 5, a Pre-emergence activity ECHCG (% phytotoxicity) [8] of 2 and a Pre-emergence activity IPOHE (% phytotoxicity) [9] of 3. It also gave a Pre-emergence activity SETFA (% phytotoxicity) (Setaria faberi (SETFA) [10]) of 4, a plant injury at 2 g/ha (Zea mays (ZEAMX)) of 0% and a plant injury at 8 g/ha (Zea mays (ZEAMX)) of 0%. The plant injury at 60 g/ha (Zea mays (ZEAMX)) was 0%, the plant injury at 125 g/ha (Zea mays (ZEAMX)) was 0% and the plant injury at 250 g/ha (Zea mays (ZEAMX)) was 0%. It also gave a plant injury at 500 g/ha (Zea mays (ZEAMX)) of 10%, a pest or weed control at 2 g/ha (Ipomea hederacea (IPOHE)) of 10% and a pest or weed control at 8 g/ha (Ipomea hederacea (IPOHE)) of 20%. The pest or weed control at 60 g/ha (Ipomea hederacea (IPOHE)) was 30%, the pest or weed control at 125 g/ha (Ipomea hederacea (IPOHE)) was 70% and the pest or weed control at 250 g/ha (Ipomea hederacea (IPOHE)) was 70%. The pest or weed control at 500 g/ha (Ipomea hederacea (IPOHE)) was 90%.
